{
  "source": "paper PMC7070818",
  "about": "(Clinical and Translational Science, 2019)",
  "key": {"[1]": {"settings": "cited from earlier work"}, "[2]": {"assay_type": "in vivo, human", "settings": "for AUC(0-t): AUC0–23 hours; for AUC(0-inf): AUC0–∞; for Tmax: median (range)"}, "[3]": {"settings": "fasted state; cited from earlier work"}, "[4]": {"system": "Bruton's tyrosine kinase (BTK)", "settings": "cited from earlier work"}, "[5]": {"settings": "male, human, plasma, oral, 140 mg, placebo phase, 140‐mg ibrutinib dose, geometric mean (geometric CV)"}, "[6]": {"settings": "male, human, plasma, oral, itraconazole phase, dose‐adjusted to a 140‐mg dose, geometric mean (geometric CV)"}, "[7]": {"settings": "male, human, plasma, oral, itraconazole phase, unadjusted, 15‐mg ibrutinib dose, geometric mean (geometric CV)"}, "[8]": {"settings": "itraconazole phase (15 mg, unadjusted) vs placebo phase (140 mg)"}, "[9]": {"settings": "itraconazole phase (dose‐adjusted to 140 mg) vs placebo phase"}, "[10]": {"settings": "itraconazole phase vs placebo phase"}, "[11]": {"settings": "itraconazole phase, dose‐adjusted to a 140‐mg dose, geometric mean (geometric CV)"}, "[12]": {"settings": "itraconazole phase, unadjusted, 15‐mg ibrutinib dose, geometric mean (geometric CV)"}, "[13]": {"settings": "placebo phase, 140‐mg ibrutinib dose, geometric mean (geometric CV)"}, "[14]": {"settings": "unadjusted, 15 mg ibrutinib during itraconazole, 140 mg during placebo"}},
  "note": "Where two headings read alike, the source gives them in different places.",
  "data": [
    {"smiles": "C=CC(=O)N1CCC[C@@H](n2nc(-c3ccc(Oc4ccccc4)cc3)c3c(N)ncnc32)C1", "note": "[Ibrutinib, ibrutinib, reference compound]", "values": [
      {"measurement": "Enhancement of bioavailability by food", "setting": "[1]", "result": "about twofold"},
      {"measurement": "Increase of AUC by ketoconazole", "setting": "[1]; fasted state, healthy volunteers", "result": 24, "unit": "fold"},
      {"measurement": "Increase of AUC by grapefruit juice", "setting": "[1]; fed conditions, healthy adults", "result": 2.2, "unit": "fold"},
      {"measurement": "Cmax", "setting": "[2]; male, human, plasma, oral", "result": 192, "unit": "ng/mL"},
      {"measurement": "AUC(0-t)", "setting": "[2]; [5]", "result": 74.4, "unit": "ng·h/mL"},
      {"measurement": "AUC(0-inf)", "setting": "[2]; [5]", "result": 76.5, "unit": "ng·h/mL"},
      {"measurement": "AUC(0-t)", "setting": "[2]; [6]", "result": 755, "unit": "ng·h/mL"},
      {"measurement": "AUC(0-t)", "setting": "[2]; [7]", "result": 80.9, "unit": "ng·h/mL"},
      {"measurement": "AUC(0-inf)", "setting": "[2]; [6]", "result": 764, "unit": "ng·h/mL"},
      {"measurement": "AUC(0-inf)", "setting": "[2]; [7]", "result": 81.9, "unit": "ng·h/mL"},
      {"measurement": "Cmax", "setting": "[2]; male, human, plasma, po", "result": 20.6, "unit": "ng/mL"},
      {"measurement": "Cmax", "setting": "[2]; male, human, plasma, po, 140 mg", "result": 22, "unit": "ng/mL"},
      {"measurement": "Mean oral bioavailability", "setting": "[3]", "result": "about 3%"}
    ]},
    {"smiles": "Nc1ncnc2c1c(-c1ccc(Oc3ccccc3)cc1)nn2[C@@H]1CCCN(C(=O)C(O)CO)C1", "note": "(stereo partly shown) [PCI‐45227]", "values": [
      {"measurement": "Inhibitory activity toward BTK relative to parent ibrutinib", "setting": "[4]", "result": "about 15 times lower"},
      {"measurement": "AUC0–23 hours geometric mean ratio (90% CI)", "setting": "[2]; [8]", "result": "0.10 (0.08, 0.11)"},
      {"measurement": "AUC0–∞ geometric mean ratio (90% CI)", "setting": "[2]; [8]", "result": "0.10 (0.09, 0.12)"},
      {"measurement": "Cmax geometric mean ratio (90% CI)", "setting": "[2]; [8]", "result": "0.07 (0.06, 0.09)"},
      {"measurement": "AUC0–23 hours geometric mean ratio (90% CI)", "setting": "[2]; [9]", "result": "0.91 (0.78, 1.07)"},
      {"measurement": "AUC0–∞ geometric mean ratio (90% CI)", "setting": "[2]; [9]", "result": "0.97 (0.82, 1.16)"},
      {"measurement": "Cmax geometric mean ratio (90% CI)", "setting": "[2]; [9]", "result": "0.68 (0.59, 0.79)"},
      {"measurement": "t1/2 geometric mean ratio (90% CI)", "setting": "[2]; itraconazole phase (dose‐adjusted) column vs placebo phase", "result": "1.3 (1.10, 1.46)"},
      {"measurement": "t1/2", "setting": "[2]; itraconazole phase (dose‐adjusted) column, geometric mean (geometric CV)", "result": "8.1 (0.28) hour"},
      {"measurement": "PCI‐45227/Ibrutinib AUC0‐∞ ratio, geometric mean ratio (90% CI)", "setting": "[2]; [10]", "result": "0.10 (0.08, 0.12)"},
      {"measurement": "t1/2 geometric mean ratio (90% CI)", "setting": "[2]; [10]", "result": "1.3 (1.10, 1.46)"},
      {"measurement": "AUC0–23 hours", "setting": "[2]; [11]", "result": "214.3 (0.36) ng·hour/mL"},
      {"measurement": "AUC0–∞", "setting": "[2]; [11]", "result": "256.0 (0.42) ng·hour/mL"},
      {"measurement": "Cmax", "setting": "[2]; [11]", "result": "21.2 (0.28) ng/mL"},
      {"measurement": "AUC0–23 hours", "setting": "[2]; [12]", "result": "23.0 (0.36) ng·hour/mL"},
      {"measurement": "AUC0–∞", "setting": "[2]; [12]", "result": "27.4 (0.42) ng·hour/mL"},
      {"measurement": "t1/2", "setting": "[2]; itraconazole phase, 15‐mg ibrutinib dose, geometric mean (geometric CV)", "result": "8.1 (0.28) hour"},
      {"measurement": "Tmax", "setting": "[2]; itraconazole phase, 15‐mg ibrutinib dose", "result": "3 (1.5–4) hour"},
      {"measurement": "PCI‐45227/Ibrutinib AUC0‐∞ ratio", "setting": "[2]; itraconazole phase, geometric mean (geometric CV)", "result": "0.34 (0.28)"},
      {"measurement": "PCI‐45227/Ibrutinib AUC0–∞ ratio during itraconazole, relative to control", "setting": "[2]; itraconazole vs placebo", "result": "10 % of control"},
      {"measurement": "AUC0–23 hours", "setting": "[2]; [13]", "result": "235.2 (0.43) ng·hour/mL"},
      {"measurement": "AUC0–∞", "setting": "[2]; [13]", "result": "262.8 (0.45) ng·hour/mL"},
      {"measurement": "t1/2", "setting": "[2]; [13]", "result": "6.4 (0.27) hour"},
      {"measurement": "Tmax", "setting": "[2]; placebo phase, 140‐mg ibrutinib dose", "result": "3 (1.5–4) hour"},
      {"measurement": "PCI‐45227/Ibrutinib AUC0‐∞ ratio", "setting": "[2]; placebo phase, geometric mean (geometric CV)", "result": "3.4 (0.57)"},
      {"measurement": "AUC0‐∞ during itraconazole phase relative to placebo phase", "setting": "[2]; [14]", "result": 10, "unit": "%"},
      {"measurement": "Cmax during itraconazole phase relative to placebo phase", "setting": "[2]; [14]", "result": 7, "unit": "%"}
    ]}
  ]
}
